What was measured:
[1] = tested on: Nannochloropsis cells transformed with pSI103-PDS; test: Cross resistance of Nannochloropsis cells transformed with pSI103-PDS; format: cell-based, Nannochloropsis oculata; settings: Nannochloropsis transformants selected on ASW + 1 μM flurochloridone
Procedure: FIG. 3. Nannochloropsis cells were transformed with the pSI103-PDS construct (right panel) as well as control cells which were not transformed with DNA (left panel) plated on artificial sea water (ASW)+1 μM flurochloridone.
Nannochloropsis oculata CS179 cells were transformed with the PSI103-PDS construct using the ECM 830 electroporator (BTX Instrument Division, Harvard Apparatus, Inc., Holliston, Mass., USA) as described above. After transformation algae were plated on ASW+F/2 media (http://www.marine.csiro.au/microalgae/methods/) containing 10^−7M flurochloridone. After two weeks, algal colonies both from the transformation and the mock were replated on ASW+10^−6M flurochloridone plates. This allowed differentiation between false positives and true resistant clones (FIG. 3). This material was used in Example 4.

[2] = tested on: zooplankton (e.g. Arthemia sp.); test: Zooplankton survivorship under CO2 and herbicide treatment; format: in vivo; settings: microtubule-inhibiting herbicides
Procedure: (§1) To quantify CO2 effects on plankton survivorship we incubate 81 L vessels of the algae Pavlova lutheri, Isochrysis CS-177, Nannochloropsis oculata CS-179, Nannochloropsis like CS-246, Nannochloropsis salina CS-190, Tetraselmis suecica, Tetraselmis chuii and Nannochloris sp or cyanobacteria Synechococcus PCC7002, Synechococcus WH-7803, Thermosynechococcus elongatus BP-1 with or without zooplankton (e.g. Arthemia sp.). The control and zooplankton treated containers are bubbled with air, 1%, 5% and 14% CO2 together with specific herbicides that are applied at the appropriate concentrations. Algal cell density and zooplankton counts are done on each treatment over a 10 day period. Throughout the experiment pH is maintained at 7.0-8.0, which allows phytoplankton growth.

[3] = tested on: wild type algae and the cyanobacteria; test: Effect of microtubule-inhibiting herbicides on wild type algae and cyanobacteria
Procedure: as §1

[4] = tested on: Chlamydomonas pds transformants; test: Contamination test: Chlamydomonas pds transformant alone and in mixed culture, with and without flurochloridone; format: cell-based, Chlamydomonas reinhardtii; settings: flurochloridone addition; liquid medium, one week, daily counts under the microscope; mixed culture 10:1
Excerpt: (§2) FIGS. 8A and B: Contamination test of Chlamydomonas pds transformant II5 versus the cyanobacterium Synechococcus PCC 7942. Chlamydomonas transformants and the cyanobacterium Synechococcus PCC7942 were inoculated alone and in mixed culture in a ratio of 10:1 with and without flurochloridone. Aliquots were removed daily and counted under the microscope. 8A represents the Chlamydomonas pds transformants counts and 8B represents the cyanobacterium Synechococcus PCC7942 counts.
(§3) To address the question of contaminants, the Chlamydomonas pds transformants were mixed with the cyanobacterium Synechococcus PCC7942, which is known to overtake ponds. A Chlamydomonas pds transformant and the cyanobacterium Synechococcus PCC7942 were inoculated alone and in mixed cultures with and without flurochloridone. The mixed culture was inoculated in a ratio of 10:1 Chlamydomonas pds transformants: Synechococcus PCC7942 wild type, respectively. The cells were allowed to grow for one week in liquid medium, with daily removal of aliquots. Contaminants versus target Chlamydomonas-cells were counted under the microscope (FIG. 8).

Synechococcus PCC7942 = test: Contamination test: Synechococcus PCC7942 alone and in mixed culture, with and without flurochloridone; format: cell-based; settings: flurochloridone addition; liquid medium, one week, daily counts under the microscope; mixed culture 10:1
Excerpt: as §2, §3

[5] = tested on: resistant pds transformed algae; test: Slow released herbicide embedded in photobioreactor lining: resistant transformed algae; format: cell-based; settings: herbicide on inner side of photobioreactor, final concentration 10^−5 to 10^−7M if fully released
Excerpt: (§4) A hydrophobic herbicide/biocide such as flurochloridone or fluridone and/or butafenacil flumioxazin is/are applied using a volatile organic solvent such as xylene on the inner side of the polyethylene algae photobioreactor or pond liner, such that if it were fully released into the subsequent growth medium the concentration would reach a final concentration of 10^−5 to 10^−7M. Transgenically resistant algae or cyanobacteria versus wild-type are inoculated in the treated photobioreactors after the solvent has evaporated. In commercial production, the herbicides can be added during production of the polyethyelene.
(§5) Culture aliquots are removed daily and cell densities of wild types and the transformed algae or cyanobacteria are compared.

wild type culture = test: Slow released herbicide embedded in photobioreactor lining: wild type culture; format: cell-based; settings: herbicide on inner side of photobioreactor, final concentration 10^−5 to 10^−7M if fully released
Excerpt: as §4, §5

Hydrilla verticillata = settings: cited from earlier work
wild-type algae = test: Butafenacil dose response on wild type algae and cyanobacteria (FIG. 11); format: cell-based; settings: 10^−6M or 10^−7M
Procedure: FIG. 11 A Chemical structure of butafenacil. B. Butafenacil dose response on wild type algae and cyanobacteria. Strains were cultured at OD648=0.1 in 24 well plate and butafencil was applied at concentrations of 10^−5,6,7M. After a week OD648 of the cultures was measured.
Cells are allowed to generate to visible colonies. After incubation for a week the most resistant colonies are chosen. To ascertain gene transformation PCR analysis is preformed on wild type and butafenacil or flumioxazin resistant colonies.

ppo transformant algae = test: Dose response of ppo transformants versus wild type alga; format: cell-based; settings: 0.1 μM, 0.3 μM, 0.5 μM in 24 well plates
Procedure: A dose response curve is generated for the wild type alga and for the transformants. The wild types and the transformant algae are plated in their medium in 24 well plates with increasing concentrations of 0.1 μM, 0.3 μM, 0.5 μM butafenacil or flumioxazin. Algae are plated without the herbicide as a control. […] The most resistant colonies are chosen for further analysis.

[6] = tested on: Synechococcus PCC7002 and Synechococcus WH7803; test: Mixed culture of ppo transformed algae and cyanobacteria contaminants, with and without herbicide; format: cell-based; settings: mixed culture 10:1 transformant:cyanobacteria, one week liquid culture
Procedure: To address the question of contaminants, the transformed algae are mixed with cyanobacteria such as Synechococcus PCC7002 and Synechococcus WH7803, which are known to overtake ponds. The transformant and the cyanobacteria are cultured alone and in mixed cultures with and without butafenacil or flumioxazin. The mixed culture is plated in a ratio of 10:1 transformant: cyanobacteria respectively. The cells are allowed to grow for one week in liquid culture, with daily removal of aliquots. These aliquots are counted under the microscope and the ratio of contaminants vs. algae is calculated.

| Compound | effect on zooplankton [2] | effect on wild type algae and cyanobacteria [3] | further results |
| --- | --- | --- | --- |
| CNc1cnn(-c2cccc(C(F)(F)F)c2)c(=O)c1Cl [norflurazon] |  |  | cross resistance of the flurochloridone resistant material [1]: cross resistant |
| CCCN(CCC)c1c([N+](=O)[O-])cc(C(F)(F)F)cc1[N+](=O)[O-] [trifluralin] | killed | do not harm |  |
| COC(=O)c1c(C(F)F)nc(C(F)(F)F)c(C2=NCCS2)c1CC(C)C [thiazopyr] | killed | do not harm |  |
| COP(=S)(NC(C)C)Oc1ccc(C)cc1[N+](=O)[O-] (stereo not shown) [amiprophos-methyl] | killed | do not harm |  |
| C=C(C)CN(CC)c1c([N+](=O)[O-])cc(C(F)(F)F)cc1[N+](=O)[O-] [ethalfluralin] | killed | do not harm |  |
| O=C1C(Cl)C(CCl)CN1c1cccc(C(F)(F)F)c1 (stereo not shown) [flurochloridone] |  |  | growth of the resistant pds Chlamydomonas cells [4]: unaffected; growth of Synechococcus PCC7942 cells (Synechococcus PCC7942): completely inhibited; growth of the resistant pds transformed algae [5]: unaffected; growth of the wild type culture (wild type culture): completely inhibited |
| fluridone |  |  | cross resistance of the flurochloridone resistant material [1]: cross resistant; growth of the resistant pds transformed algae [5]: unaffected; growth of the wild type culture (wild type culture): completely inhibited; biomass accumulation, of the content in untreated plants (Hydrilla verticillata; fluridone resistant biotypes): up to 72%; β-carotene accumulation, of the content in untreated plants (Hydrilla verticillata; fluridone resistant biotypes): ≤ 77%; biomass accumulation, of the levels found in untreated plants (Hydrilla verticillata; susceptible population): 10%; β-carotene accumulation, of the levels found in untreated plants (Hydrilla verticillata; susceptible population): 10% |
| CCC(CC)Nc1c([N+](=O)[O-])cc(C)c(C)c1[N+](=O)[O-] [pendimethalin] | killed | do not harm |  |
| C#CCN1C(=O)COc2cc(F)c(N3C(=O)C4=C(CCCC4)C3=O)cc21 [flumioxazin] |  |  | wild-type algae growth (wild-type algae): inhibit; growth of the resistant pds transformed algae [5]: unaffected; growth of the wild type culture (wild type culture): completely inhibited; growth of transformants bearing the resistance gene in dose response (ppo transformant algae): ability to grow at higher concentrations than the wild type; contaminants in mixed cultures containing the herbicide [6]: decreasing numbers of contaminants |
| CCCCN(CC)c1c([N+](=O)[O-])cc(C(F)(F)F)cc1[N+](=O)[O-] [benefin] | killed | do not harm |  |
| CC(C)N(Cc1ccccc1)C(=O)C(C)(C)C [tebutam] | killed | do not harm |  |
| COC(=O)c1c(Cl)c(Cl)c(C(=O)OC)c(Cl)c1Cl [chlorthal-dimethyl] | killed | do not harm |  |
| CSC(=O)c1c(C(F)F)nc(C(F)(F)F)c(C(=O)SC)c1CC(C)C [dithiopyr] | killed | do not harm |  |
| CCC(C)Nc1c([N+](=O)[O-])cc(C(C)(C)C)cc1[N+](=O)[O-] (stereo not shown) [butralin] | killed | do not harm |  |
| CCOP(=S)(NC(C)CC)Oc1cc(C)ccc1[N+](=O)[O-] (stereo not shown) [butamiphos] | killed | do not harm |  |
| C=CCOC(=O)C(C)(C)OC(=O)c1cc(-n2c(=O)cc(C(F)(F)F)n(C)c2=O)ccc1Cl [butafenacil] |  |  | wild-type algae growth (wild-type algae): inhibit; growth of the resistant pds transformed algae [5]: unaffected; growth of the wild type culture (wild type culture): completely inhibited; growth of transformants bearing the resistance gene in dose response (ppo transformant algae): ability to grow at higher concentrations than the wild type; contaminants in mixed cultures containing the herbicide [6]: decreasing numbers of contaminants |
| C#CC(C)(C)NC(=O)c1cc(Cl)cc(Cl)c1 [propyzamide] | killed | do not harm |  |
| CCN(CC)c1c([N+](=O)[O-])cc(C(F)(F)F)c(N)c1[N+](=O)[O-] [dinitramine] | killed | do not harm |  |
| O=C(Nc1ccc(F)cc1)c1cccc(Oc2cccc(C(F)(F)F)c2)n1 [picolinafen] |  |  | cross resistance of the flurochloridone resistant material [1]: cross resistant |
